Test results from patent US20240308976A1, “COMPOUNDS THAT MEDIATE PROTEIN DEGRADATION AND USES THEREOF” (Monte Rosa Therapeutics, Inc., priority 2021, published 2024).

Legend:
GSPT1 = target: T1, GSPT1 (Homo sapiens, UniProt P15170+Q96SW2); test: Immunofluorescence assay for activity to degrade GSPT1 in CAL-51 cells; format: cell-based; details: 6 h treatment, read-out: IF Class (GSPT1 degradation, DC50)
T1 construct: CAL-51 cells were purchased from DSMZ (cat. Number ACC302); host or cells: CAL-51
In short: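 CAL-51 cells treated 6 h with compound (30 μM to 0.1 nM), fixed, immunostained for GSPT1 with DAPI and phalloidin counterstains, imaged by high-content microscopy. Mean per-cell GSPT1 intensity normalized to controls; DC50 by non-linear regression.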

CRBN-DDB1 = CRBN-DDB1 (Homo sapiens, UniProt Q96SW2); test: Compound binding to CRBN by HTRF assay; details: CRBN-DDB1 2.5 nM, Cy5-Thalidomide 100 nM, 30 min at ambient temperature; read-out: HTRF Class (Cereblon binding, HTRF IC50)
In short: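 Cy5-thalidomide (100 nM) displacement from His-tagged CRBN-DDB1 (2.5 nM) read by terbium-cryptate HTRF (665/620 nm), in 20 mM HEPES, 20 mM NaCl, 0.2 mM TCEP, 0.2 mM EDTA, 0.005% Tween20. Compounds tested as 10-point 1:3 series, 30 min at ambient temperature. Signal normalised to DMSO and lenalidomide controls; IC50 fitted, Ki by Cheng-Prusoff.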

CRBN-DDB1, sequence (Q96SW2 whole entry): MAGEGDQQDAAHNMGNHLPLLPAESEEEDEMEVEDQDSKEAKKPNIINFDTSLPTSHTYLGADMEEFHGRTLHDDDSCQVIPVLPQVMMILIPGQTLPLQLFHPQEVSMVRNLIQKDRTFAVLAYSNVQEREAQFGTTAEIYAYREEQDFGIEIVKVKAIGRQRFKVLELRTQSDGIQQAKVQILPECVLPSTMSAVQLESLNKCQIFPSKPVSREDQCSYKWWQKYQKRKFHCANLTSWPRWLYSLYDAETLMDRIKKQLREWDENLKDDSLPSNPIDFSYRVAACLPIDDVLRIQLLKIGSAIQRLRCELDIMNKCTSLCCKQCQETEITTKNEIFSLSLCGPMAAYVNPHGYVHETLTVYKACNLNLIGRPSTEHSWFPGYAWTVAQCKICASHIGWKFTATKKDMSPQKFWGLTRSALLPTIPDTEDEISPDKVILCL
CRBN-DDB1, sequence (Q16531 whole entry partner): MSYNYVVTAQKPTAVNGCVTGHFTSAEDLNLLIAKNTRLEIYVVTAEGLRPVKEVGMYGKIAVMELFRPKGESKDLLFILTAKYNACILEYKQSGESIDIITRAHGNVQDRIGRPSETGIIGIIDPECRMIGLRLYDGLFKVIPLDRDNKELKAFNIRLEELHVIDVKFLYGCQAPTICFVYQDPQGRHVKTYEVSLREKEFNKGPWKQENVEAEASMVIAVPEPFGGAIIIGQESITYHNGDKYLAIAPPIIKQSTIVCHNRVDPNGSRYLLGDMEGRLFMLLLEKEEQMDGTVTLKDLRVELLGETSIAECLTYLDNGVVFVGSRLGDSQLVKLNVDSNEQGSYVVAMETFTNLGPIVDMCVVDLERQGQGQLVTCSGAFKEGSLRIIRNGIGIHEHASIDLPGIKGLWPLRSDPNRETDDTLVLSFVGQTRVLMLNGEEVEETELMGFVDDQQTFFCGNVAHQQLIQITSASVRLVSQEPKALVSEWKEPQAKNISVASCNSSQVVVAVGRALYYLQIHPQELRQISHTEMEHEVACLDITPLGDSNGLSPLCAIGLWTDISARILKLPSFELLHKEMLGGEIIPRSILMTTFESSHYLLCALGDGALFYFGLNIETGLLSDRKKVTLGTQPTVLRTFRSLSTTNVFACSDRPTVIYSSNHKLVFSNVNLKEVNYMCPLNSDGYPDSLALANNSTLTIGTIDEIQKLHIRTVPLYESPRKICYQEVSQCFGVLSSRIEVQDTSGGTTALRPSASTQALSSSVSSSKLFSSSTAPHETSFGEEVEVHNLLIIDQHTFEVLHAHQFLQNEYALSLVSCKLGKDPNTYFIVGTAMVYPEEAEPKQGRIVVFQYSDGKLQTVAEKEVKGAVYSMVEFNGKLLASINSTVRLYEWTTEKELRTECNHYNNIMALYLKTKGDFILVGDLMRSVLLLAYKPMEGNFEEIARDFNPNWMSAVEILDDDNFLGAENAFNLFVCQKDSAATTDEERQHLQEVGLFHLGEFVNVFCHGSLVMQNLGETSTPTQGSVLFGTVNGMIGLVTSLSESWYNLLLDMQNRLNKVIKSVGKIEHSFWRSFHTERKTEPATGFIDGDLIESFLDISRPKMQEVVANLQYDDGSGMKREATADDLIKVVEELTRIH
T1 sequence (P15170 whole entry): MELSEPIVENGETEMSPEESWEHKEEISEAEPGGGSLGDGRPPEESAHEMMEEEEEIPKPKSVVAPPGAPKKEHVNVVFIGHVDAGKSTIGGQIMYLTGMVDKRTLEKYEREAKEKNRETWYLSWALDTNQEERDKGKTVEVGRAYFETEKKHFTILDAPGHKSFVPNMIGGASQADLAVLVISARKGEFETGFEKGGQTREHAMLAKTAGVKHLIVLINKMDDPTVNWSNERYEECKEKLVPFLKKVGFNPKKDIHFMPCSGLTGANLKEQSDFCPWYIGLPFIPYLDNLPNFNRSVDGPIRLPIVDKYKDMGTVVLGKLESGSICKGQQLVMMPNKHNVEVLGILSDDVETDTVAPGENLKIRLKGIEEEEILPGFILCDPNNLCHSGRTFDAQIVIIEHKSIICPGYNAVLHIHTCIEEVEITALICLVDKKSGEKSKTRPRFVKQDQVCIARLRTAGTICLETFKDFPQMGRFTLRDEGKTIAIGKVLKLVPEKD
T1 sequence (Q96SW2 whole entry): as the sequence (Q96SW2 whole entry) above
T1 sequence (Q16531 2-1140 partner limits assumed): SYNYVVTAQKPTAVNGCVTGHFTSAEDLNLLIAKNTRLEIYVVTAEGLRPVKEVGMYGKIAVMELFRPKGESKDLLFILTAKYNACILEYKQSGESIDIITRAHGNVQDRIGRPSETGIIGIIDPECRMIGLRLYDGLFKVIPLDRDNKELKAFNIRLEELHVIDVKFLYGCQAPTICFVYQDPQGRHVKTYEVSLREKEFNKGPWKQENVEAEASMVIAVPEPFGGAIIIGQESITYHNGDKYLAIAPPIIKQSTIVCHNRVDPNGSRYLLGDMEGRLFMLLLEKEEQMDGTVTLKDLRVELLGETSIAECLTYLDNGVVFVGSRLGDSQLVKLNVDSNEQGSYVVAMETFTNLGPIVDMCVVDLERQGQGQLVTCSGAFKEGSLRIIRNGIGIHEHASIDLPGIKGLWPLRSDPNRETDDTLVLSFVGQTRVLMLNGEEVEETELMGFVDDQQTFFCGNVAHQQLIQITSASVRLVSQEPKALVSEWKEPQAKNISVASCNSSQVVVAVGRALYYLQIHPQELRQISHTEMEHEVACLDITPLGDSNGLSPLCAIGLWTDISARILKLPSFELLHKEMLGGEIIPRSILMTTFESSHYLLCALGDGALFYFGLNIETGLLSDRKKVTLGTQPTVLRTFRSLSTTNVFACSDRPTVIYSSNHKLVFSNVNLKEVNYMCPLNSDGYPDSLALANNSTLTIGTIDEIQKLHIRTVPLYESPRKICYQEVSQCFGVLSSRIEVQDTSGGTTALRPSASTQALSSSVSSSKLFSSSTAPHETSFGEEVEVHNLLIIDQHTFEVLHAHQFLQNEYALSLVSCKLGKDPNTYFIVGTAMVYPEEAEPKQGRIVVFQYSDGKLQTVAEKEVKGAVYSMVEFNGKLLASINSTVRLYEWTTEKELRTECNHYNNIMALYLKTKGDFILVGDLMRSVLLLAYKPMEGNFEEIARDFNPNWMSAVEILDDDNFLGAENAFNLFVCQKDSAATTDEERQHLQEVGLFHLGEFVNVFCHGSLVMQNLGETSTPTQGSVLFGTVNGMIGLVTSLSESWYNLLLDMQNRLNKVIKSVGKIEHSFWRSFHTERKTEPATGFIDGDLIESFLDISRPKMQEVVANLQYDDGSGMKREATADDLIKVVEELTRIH

Row | SMILES | DC50 (GSPT1) [nM] | IC50 (CRBN-DDB1) [nM]
1 | O=C1CCC(c2ccc(N3CC(NC(=O)Nc4cccc(OC(F)(F)F)c4)C3)cc2Cl)C(=O)N1 (stereo not shown) [Compound 41, 1-(1-(3-chloro-4-(2,6-dioxopiperidin-3-yl)phenyl)azetidin-3-yl)-3-(3-(trifluoromethoxy)phenyl)urea] | > 300 | 100 to 1000
2 | Cc1ccc(NC(=O)NC2CN(c3ccc(C4CCC(=O)NC4=O)c(Cl)c3)C2)cc1Cl (stereo not shown) [Compound 42, 1-(1-(3-chloro-4-(2,6-dioxopiperidin-3-yl)phenyl)azetidin-3-yl)-3-(3-chloro-4-methylphenyl)urea] | 30 to 300 | 100 to 1000
3 | CC1(c2ccc(NC(=O)OC3CN(c4cc(F)c(C5CCC(=O)NC5=O)c(F)c4)C3)cn2)CC1 (stereo not shown) [Compound 43, 1-(4-(2,6-dioxopiperidin-3-yl)-3,5-difluorophenyl)azetidin-3-yl(6-(1-methylcyclopropyl)pyridin-3-yl) carbamate] | ≤ 30 | 100 to 1000
4 | O=C1CCC(c2c(F)cc(N3CC(OC(=O)Nc4cc(F)cc(OC(F)F)c4)C3)cc2F)C(=O)N1 (stereo not shown) [Compound 44, 1-(4-(2,6-dioxopiperidin-3-yl)-3,5-difluorophenyl)azetidin-3-yl (3-(difluoromethoxy)-5-fluorophenyl)carbamate] | 30 to 300 | 100 to 1000
5 | O=C1CCC(c2c(F)cc(N3CC(OC(=O)Nc4ccc(-c5ccccn5)cc4)C3)cc2F)C(=O)N1 (stereo not shown) [Compound 45, 1-(4-(2,6-dioxopiperidin-3-yl)-3,5-difluorophenyl)azetidin-3-yl (4-(pyridin-2-yl)phenyl)carbamate] | ≤ 30 | 100 to 1000
6 | COc1c(N2CC(OC(=O)Nc3ccc(C)c(Cl)c3)C2)cc(F)c(C2CCC(=O)NC2=O)c1F (stereo not shown) [Compound 46, 1-(4-(2,6-dioxopiperidin-3-yl)-3,5-difluoro-2-methoxyphenyl)azetidin-3-yl (3-chloro-4-methylphenyl) carbamate] | 30 to 300 | 100 to 1000
7 | Cc1cc(C#N)cc(NC(=O)OC2CN(c3cc(F)c(C4CCC(=O)NC4=O)c(F)c3)C2)c1 (stereo not shown) [Compound 49, 1-(4-(2,6-dioxopiperidin-3-yl)-3,5-difluorophenyl)azetidin-3-yl (3-cyano-5-methylphenyl) carbamate] | 30 to 300 | 100 to 1000
8 | O=C1CCC(c2c(F)cc(N3CC(OC(=O)Nc4cnc(-c5ccccc5)nc4)C3)cc2F)C(=O)N1 (stereo not shown) [Compound 51, 1-(4-(2,6-dioxopiperidin-3-yl)-3,5-difluorophenyl)azetidin-3-yl(2-phenylpyrimidin-5-yl)carbamate] | ≤ 30 | 100 to 1000
9 | Cc1c(Cl)cc(NC(=O)OC2CN(c3cc(F)c(C4CCC(=O)NC4=O)c(F)c3)C2)cc1OCCN1CCOCC1 (stereo not shown) [Compound 52, 1-(4-(2,6-dioxopiperidin-3-yl)-3,5-difluorophenyl)azetidin-3-yl(3-chloro-4-methyl-5-(2-morpholinoethoxy)phenyl)carbamate] | ≤ 30 | 100 to 1000
10 | Cc1c(Cl)cc(NC(=O)OC2CN(c3cc(F)c(C4CCC(=O)NC4=O)c(F)c3)C2)cc1C#N (stereo not shown) [Compound 53, 1-(4-(2,6-dioxopiperidin-3-yl)-3,5-difluorophenyl)azetidin-3-yl(3-chloro-5-cyano-4-methylphenyl) carbamate] | 30 to 300 | 100 to 1000
11 | Cc1ccc(NC(=O)OC2CN(c3ccc(C4CCC(=O)NC4=O)cc3)C2)cc1Cl (stereo not shown) [Compound 55, 1-(4-(2,6-dioxopiperidin-3-yl)phenyl)azetidin-3-yl (3-chloro-4-methylphenyl)carbamate] | 30 to 300 | > 1000
12 | COc1cc(C2CCC(=O)NC2=O)c(Cl)cc1N1CC(OC(=O)Nc2ccc(C)c(Cl)c2)C1 (stereo not shown) [Compound 56, 1-(5-chloro-4-(2,6-dioxopiperidin-3-yl)-2-methoxyphenyl)azetidin-3-yl (3-chloro-4-methylphenyl)carbamate] | 30 to 300 | > 1000
13 | Cc1ccc(NC(=O)OC2CN(c3ccc(C4CCC(=O)NC4=O)c(C#N)c3)C2)cc1Cl (stereo not shown) [Compound 57, 1-(3-cyano-4-(2,6-dioxopiperidin-3-yl)phenyl)azetidin-3-yl(3-chloro-4-methylphenyl)carbamate] | 30 to 300 | > 1000
14 | CC1(c2ccc(NC(=O)OC3CN(c4cc(F)c(C5CCC(=O)NC5=O)c(F)c4)C3)cc2)CC1 (stereo not shown) [Compound 58, 1-(4-(2,6-dioxopiperidin-3-yl)-3,5-difluorophenyl)azetidin-3-yl (4-(1-methylcyclopropyl)phenyl)carbamate] | 30 to 300 | 100 to 1000
15 | COc1c(N2CC(OC(=O)Nc3ccc(C)c(Cl)c3)C2)ccc(C2CCC(=O)NC2=O)c1Cl (stereo not shown) [Compound 59, 1-(3-chloro-4-(2,6-dioxopiperidin-3-yl)-2-methoxyphenyl)azetidin-3-yl (3-chloro-4-methylphenyl)carbamate] | > 300 | > 1000
16 | O=C1CCC(c2c(F)cc(N3CC(OC(=O)NC45CC(c6ccccc6)(C4)C5)C3)cc2F)C(=O)N1 (stereo not shown) [Compound 61, 1-(4-(2,6-dioxopiperidin-3-yl)-3,5-difluorophenyl)azetidin-3-yl(3-phenylbicyclo[1.1.1]pentan-1-yl) carbamate] | ≤ 30 | 100 to 1000
17 | O=C1CCC(c2c(F)cc(N3CC(OC(=O)NC45CC(C4)C5)C3)cc2F)C(=O)N1 (stereo not shown) [Compound 63, 1-(4-(2,6-dioxopiperidin-3-yl)-3,5-difluorophenyl)azetidin-3-yl bicyclo[1.1.1]pentan-1-ylcarbamate] | > 300 | 100 to 1000
18 | Cc1ccc(NC(=O)NC2CN(c3ccc(C4CCC(=O)NC4=O)cc3)C2)cc1Cl (stereo not shown) [Compound 66, 1-(3-chloro-4-methylphenyl)-3-(1-(4-(2,6-dioxopiperidin-3-yl)phenyl)azetidin-3-yl)urea] | 30 to 300 | 100 to 1000

Now from value to molecule:

Row | DC50 (GSPT1) [nM] | IC50 (CRBN-DDB1) [nM] | SMILES
19 | 30 to 300 | 100 to 1000 | N#Cc1cc(Cl)cc(NC(=O)OC2CN(c3cc(F)c(C4CCC(=O)NC4=O)c(F)c3)C2)c1 (stereo not shown) [Compound 47, 1-(4-(2,6-dioxopiperidin-3-yl)-3,5-difluorophenyl)azetidin-3-yl(3-chloro-5-cyanophenyl)carbamate]
20 | ≤ 30 | 100 to 1000 | Cc1cc(NC(=O)OC2CN(c3cc(F)c(C4CCC(=O)NC4=O)c(F)c3)C2)cc(C)c1C#N (stereo not shown) [Compound 48, 1-(4-(2,6-dioxopiperidin-3-yl)-3,5-difluorophenyl)azetidin-3-yl (4-cyano-3,5-dimethylphenyl) carbamate]
21 | 30 to 300 | 100 to 1000 | O=C1CCC(c2c(F)cc(N3CC(NC(=O)Nc4cc(F)cc(OC(F)(F)F)c4)C3)cc2F)C(=O)N1 (stereo not shown) [Compound 50, 1-(1-(4-(2,6-dioxopiperidin-3-yl)-3,5-difluorophenyl)azetidin-3-yl)-3-(3-fluoro-5-(trifluoromethoxy)phenyl)urea]
22 | 30 to 300 | > 1000 | Cc1ccc(NC(=O)OC2CN(c3ccc(C4CCC(=O)NC4=O)c(Cl)c3F)C2)cc1Cl (stereo not shown) [Compound 54, 1-(3-chloro-4-(2,6-dioxopiperidin-3-yl)-2-fluorophenyl)azetidin-3-yl(3-chloro-4-methylphenyl)carbamate]
23 | ≤ 30 | 100 to 1000 | CC1(c2ccc(NC(=O)NC3CN(c4cc(F)c(C5CCC(=O)NC5=O)c(F)c4)C3)cc2)CC1 (stereo not shown) [Compound 60, 1-(1-(4-(2,6-dioxopiperidin-3-yl)-3,5-difluorophenyl)azetidin-3-yl)-3-(4-(1-methylcyclopropyl)phenyl)urea]
24 | > 300 | 100 to 1000 | O=C1CCC(c2c(F)cc(N3CC(OC(=O)NC45CC(F)(C4)C5)C3)cc2F)C(=O)N1 (stereo not shown) [Compound 62, 1-(4-(2,6-dioxopiperidin-3-yl)-3,5-difluorophenyl)azetidin-3-yl(3-fluorobicyclo[1.1.1]pentan-1-yl)carbamate]
25 | ≤ 30 | ≤ 100 | Cc1cc(NC(=O)OC2CN(c3cc(F)c(C4CCC(=O)NC4=O)c(F)c3)C2)cc(CN2CC3CC2CO3)c1C (stereo not shown) [Compound 64, 1-(4-(2,6-dioxopiperidin-3-yl)-3,5-difluorophenyl)azetidin-3-yl(3-(2-oxa-5-azabicyclo[2.2.1]heptan-5-ylmethyl)-4,5-dimethylphenyl) carbamate]
26 | ≤ 30 | ≤ 100 | O=C1CCC(c2c(F)cc(N3CC(OC(=O)NC45CC(N6CCCCC6)(C4)C5)C3)cc2F)C(=O)N1 (stereo not shown) [Compound 65, 1-(4-(2,6-dioxopiperidin-3-yl)-3,5-difluorophenyl)azetidin-3-yl (3-(piperidin-1-yl)bicyclo[1.1.1]pentan-1-yl) carbamate]
27 | 30 to 300 | 100 to 1000 | Cc1cc(C)cc(NC(=O)NC2CN(c3ccc(C4CCC(=O)NC4=O)cc3)C2)c1 (stereo not shown) [Compound 67, 1-(3,5-dimethylphenyl)-3-(1-(4-(2,6-dioxopiperidin-3-yl)phenyl)azetidin-3-yl)urea]
28 | 30 to 300 | ≤ 100 | O=C1CCC(c2c(F)cc(N3CC(OC(=O)NC45CC(CF)(C4)C5)C3)cc2F)C(=O)N1 (stereo not shown) [Compound 68, 1-(4-(2,6-dioxopiperidin-3-yl)-3,5-difluorophenyl)azetidin-3-yl (3-(fluoromethyl)bicyclo[1.1.1]pentan-1-yl) carbamate]
29 | ≤ 30 | 100 to 1000 | COc1ccc(C(F)(F)C23CC(NC(=O)OC4CN(c5cc(F)c(C6CCC(=O)NC6=O)c(F)c5)C4)(C2)C3)cc1 (stereo not shown) [Compound 69, 1-(4-(2,6-dioxopiperidin-3-yl)-3,5-difluorophenyl)azetidin-3-yl (3-(difluoro(4-methoxyphenyl)methyl)bicyclo[1.1.1]pentan-1-yl)carbamate]
